Reference: patent US20210220376A1, “ADDICTION TREATMENT OF AN ALCOHOL-CONSUMING PATIENT POPULATION” (Amygdala Neurosciences, Inc., priority 2018, published 2021)

Test system: healthy male alcohol drinkers
Assay: Phase 1 single-ascending-dose study of compound (2) coadministered with ethanol: safety
Type: in vivo, human
Protocol: This was a single-center, randomized, double-blind, placebo-controlled, single-ascending-dose cohort study to evaluate the safety and tolerability of the coadministration of up to 6 dose levels of compound (2) (25 mg, 50 mg, 100 mg, 200 mg, 400 mg and 600 mg) and EtOH in healthy male alcohol drinkers.
Within 27 days of the medical screening visit, subjects were enrolled and attended an inpatient Qualification Phase in which they received up to 5 standard drinks (14 grams of EtOH each; oral solution of vodka containing 40% [v/v] EtOH, mixed with a non-carbonated beverage, one drink every 30 minutes) to evaluate their tolerance to repeat administration to ensure they could safely tolerate the planned EtOH treatment. A minimum washout interval of 44 hours was performed between initiation of the last EtOH administration in the Qualification Phase and study drug administration in the Treatment Phase.
Following qualification, eligible subjects were enrolled and randomized to receive compound (2) or placebo in a 3:1 fashion in each of 6 cohorts (8 subjects per cohort). As a safety precaution, no more than 4 subjects were administered study drug on any given day. Planned compound (2) dose levels included doses of 25 mg, 50 mg, 100 mg, 200 mg, 400 mg, and 600 mg. Study drug administration occurred approximately 1 hour following ingestion of a standardized (moderate-fat) meal. Approximately 2 hours after receiving the study drug, subjects began a session of repeat EtOH administration, during which they could receive up to 5 doses of EtOH (14 grams each, approximately 1 standard drink) every 30 minutes, or until a stopping criterion applied. Safety assessments, pharmacodynamic assessments and pharmacokinetic blood sample collections were obtained up to 48 hours post-dose. Subjects were discharged after 48-hour post-dose procedures were completed and the investigator deemed it safe to do so. Subjects returned for the safety follow-up visit approximately 7 (±2) days following discharge from the Treatment Phase or after early discontinuation from the study.
The primary endpoints included frequency and severity of adverse events (AEs), ethanol reaction (ER) scores and flushing, laboratory values, vital signs, and electrocardiograms (ECGs).
Subjects' ER scores and flushing were summarized descriptively by timepoint, category and treatment. In addition, flushing, ER heat sensation and ER palpitation were compared between each of the active doses and placebo using a mixed-effect model for repeated measures (MMRM) analysis with treatment, visit, and treatment by visit as fixed effects and baseline as a covariate. The actual value was used as the dependent variable and visit included pre-EtOH, 30 minutes, 60 minutes, 90 minutes, 120 minutes, 150 minutes and 3 hours relative to the first EtOH administration in Treatment Phase. The variance-covariance matrix was assumed to be unstructured. […] Results were presented as least square means (LSMEANS), treatment differences in LSMEANS, 95% confidence intervals (CI) and p-values.
Vital signs measurements (respiratory rate, systolic and diastolic blood pressure, and heart rate) were summarized by treatment and visit. Heart rate and diastolic blood pressure were also compared between each of the active doses and placebo using an MMRM analysis with treatment, visit, and treatment by visit as fixed effects and baseline as a covariate.
Twelve-lead ECG results were summarized by timepoint and treatment, and frequencies (numbers and percentages) were calculated for the overall evaluation. Concomitant medications, clinical laboratory evaluations (raw data and change from baseline, as applicable) and physical examination findings were listed.

[1] = 200 mg, 135 min after first EtOH
[2] = 400 mg, 15 min after first EtOH
[3] = 400 mg, 45 min after first EtOH
[4] = 400 mg, 75 min after first EtOH
[5] = 400 mg, 105 min after first EtOH
[6] = 400 mg, 135 min after first EtOH
[7] = 600 mg, 15 min after first EtOH
[8] = 600 mg, 45 min after first EtOH
[9] = 600 mg, 75 min after first EtOH
[10] = 600 mg, 105 min after first EtOH
[11] = 600 mg, 135 min after first EtOH
[12] = Overall (N = 36), 15 min after first EtOH
[13] = Overall (N = 36), 45 min after first EtOH
[14] = Overall (N = 36), 75 min after first EtOH
[15] = Overall (N = 36), 105 min after first EtOH
[16] = Overall (N = 36), 135 min after first EtOH

O=C(NCc1ccc(-c2ccn(COP(=O)(O)O)c(=O)c2)cc1)c1c(Cl)cccc1Cl [Compound (2), phosphoric acid mono-(4-{4-[(2,6-dichloro-benzoylamino)-methyl]-phenyl}-2-oxo-2H-pyridin-1-ylmethyl) ester]
Diastolic Blood Pressure, Mean [1]: 69.3 mmHg
Heart Rate, Mean [1]: 96.2 beats/min
Systolic Blood Pressure, Mean [1]: 124.0 mmHg
Diastolic Blood Pressure, Mean (200 mg, Pre-EtOH): 73.8 mmHg
Heart Rate, Mean (200 mg, Pre-EtOH): 60.2 beats/min
Systolic Blood Pressure, Mean (200 mg, Pre-EtOH): 119.8 mmHg
subjects with TEAE of sinus tachycardia (200 mg, after EtOH): three
subjects with TEAE of tachycardia (200 mg, after EtOH): one
subjects with TEAE of tachypnea (200 mg, after EtOH): One
QTcF Interval, Aggregate, Mean (200 mg, prior to initiation of repeat EtOH administration session): 400.2 ms
subjects reporting a TEAE (400 mg): 100%
Diastolic Blood Pressure, Mean [2]: 71.3 mmHg
Systolic Blood Pressure, Mean [2]: 112.8 mmHg
Diastolic Blood Pressure, Mean [3]: 71.8 mmHg
Heart Rate, Mean [3]: 81.2 beats/min
Systolic Blood Pressure, Mean [3]: 120.0 mmHg
QTcF Interval, Aggregate, Mean (400 mg, 1 hour after initiation of repeat EtOH administration session): 394.8 ms
Diastolic Blood Pressure, Mean [4]: 70.5 mmHg
Heart Rate, Mean [4]: 82.7 beats/min
Systolic Blood Pressure, Mean [4]: 119.3 mmHg
Diastolic Blood Pressure, Mean [5]: 72.2 mmHg
Heart Rate, Mean [5]: 86.2 beats/min
Systolic Blood Pressure, Mean [5]: 118.5 mmHg
Diastolic Blood Pressure, Mean [6]: 71.0 mmHg
Heart Rate, Mean [6]: 83.7 beats/min
Systolic Blood Pressure, Mean [6]: 118.8 mmHg
Diastolic Blood Pressure, Mean (400 mg, Pre-EtOH): 71.7 mmHg
Heart Rate, Mean (400 mg, Pre-EtOH): 61.2 beats/min
Systolic Blood Pressure, Mean (400 mg, Pre-EtOH): 115.3 mmHg
QTcF Interval, Aggregate, Mean (400 mg, prior to initiation of repeat EtOH administration session): 396.7 ms
subjects reporting a TEAE (600 mg): 83.3%
Diastolic Blood Pressure, Mean [7]: 75.0 mmHg
Systolic Blood Pressure, Mean [7]: 122.3 mmHg
Diastolic Blood Pressure, Mean [8]: 75.0 mmHg
Heart Rate, Mean [8]: 85.2 beats/min
Systolic Blood Pressure, Mean [8]: 127.3 mmHg
QTcF Interval, Aggregate, Mean (600 mg, 1 hour after initiation of repeat EtOH administration session): 394.3 ms
Diastolic Blood Pressure, Mean [9]: 74.2 mmHg
Heart Rate, Mean [9]: 91.8 beats/min
Systolic Blood Pressure, Mean [9]: 130.2 mmHg
Diastolic Blood Pressure, Mean [10]: 72.0 mmHg
Heart Rate, Mean [10]: 91.8 beats/min
Systolic Blood Pressure, Mean [10]: 126.8 mmHg
Diastolic Blood Pressure, Mean [11]: 74.8 mmHg
Heart Rate, Mean [11]: 92.3 beats/min
Systolic Blood Pressure, Mean [11]: 127.7 mmHg
Diastolic Blood Pressure, Mean (600 mg, Pre-EtOH): 75.2 mmHg
Heart Rate, Mean (600 mg, Pre-EtOH): 61.2 beats/min
Systolic Blood Pressure, Mean (600 mg, Pre-EtOH): 120.2 mmHg
QTcF Interval, Aggregate, Mean (600 mg, prior to initiation of repeat EtOH administration session): 393.8 ms
deaths or serious adverse events (25-600 mg oral with up to 5 doses of EtOH (14 g each)): no deaths or serious adverse events
Diastolic Blood Pressure, Mean [12]: 74.0 mmHg
Systolic Blood Pressure, Mean [12]: 118.8 mmHg
Diastolic Blood Pressure, Mean [13]: 73.4 mmHg
Heart Rate, Mean [13]: 76.6 beats/min
Systolic Blood Pressure, Mean [13]: 122.0 mmHg
QTcF Interval, Aggregate, Mean (Overall (N = 36), 1 hour after initiation of repeat EtOH administration session): 401.1 ms
Diastolic Blood Pressure, Mean [14]: 72.5 mmHg
Heart Rate, Mean [14]: 82.9 beats/min
Systolic Blood Pressure, Mean [14]: 122.3 mmHg
Diastolic Blood Pressure, Mean [15]: 71.3 mmHg
Heart Rate, Mean [15]: 85.3 beats/min
Systolic Blood Pressure, Mean [15]: 121.7 mmHg
Diastolic Blood Pressure, Mean [16]: 72.8 mmHg
Heart Rate, Mean [16]: 82.5 beats/min
Systolic Blood Pressure, Mean [16]: 121.3 mmHg
Diastolic Blood Pressure, Mean (Overall (N = 36), Pre-EtOH): 73.4 mmHg
Heart Rate, Mean (Overall (N = 36), Pre-EtOH): 59.3 beats/min
Systolic Blood Pressure, Mean (Overall (N = 36), Pre-EtOH): 117.3 mmHg
QTcF Interval, Aggregate, Mean (Overall (N = 36), prior to initiation of repeat EtOH administration session): 399.4 ms
changes in diastolic blood pressure compared with placebo (after EtOH administration): no significant changes
changes in systolic blood pressure compared with placebo (after EtOH administration): no significant changes
subjects reporting a TEAE (all compound (2)-treated subjects): 88.9%
incidence of flushing and feeling hot compared with placebo (all doses): higher
compound (2)-treated subjects who did not consume all 5 EtOH administrations due to TEAEs (all doses, N = 36): 5.6%
flushing (all other doses (50-600 mg)): observed
tolerability (all treatments): generally well tolerated
ER subjective assessment compared with placebo (heat sensation, palpitations): more likely to report feeling heat sensation and feeling palpitations
